Source: patent US9296723B2, “NAMPT inhibitors” (AbbVie Inc., priority 2012, dated 2016)

Experiments:
NAMPT = NAMPT (Homo sapiens, UniProt P43490); assay: Time-Resolved Fluorescence Resonance Energy Transfer (TR-FRET) Binding Assay of NAMPT; details: 6.8 nM NAMPT, 200 nM probe, equilibrated 3 hours, no substrates
Experimental: Determination of the utility of compounds having Formula (I) as binders to and inhibitors of NAMPT was performed using Time-Resolved Fluorescence Resonance Energy Transfer (TR-FRET) binding assays.
Time-Resolved Fluorescence Resonance Energy Transfer (TR-FRET) Binding Assay of NAMPT
Six L were transferred to 384-well low-volume plates ([…] #3673). To this, 12 L of a 1.5× solution containing enzyme, probe and antibody were added. […] Reactions were equilibrated at room temperature for 3 hours prior to reading on an Envision multi-label plate reader (Perkin Elmer; Ex=337 nm, Em=520 and 495 nm). Time-resolved FRET ratios (Em520/Em495) were normalized to controls, plotted as a function of compound concentration and fit with the four-parameter logistic equation to determine IC50s.

PC3 cells = assay: NAMPT Cell Proliferation Assay (Cell Titer Glo); format: cell-based; details: Homo sapiens, PC-3, 120 h, incubated 5 days, cell viability
Experimental: NAMPT Cell Proliferation Assay
PC3 cells were seeded in 96-well black plates (Corning #3904) at 500 cells/well in 90 µl of RPMI media containing 10% heat-inactivated FBS and incubated overnight at 37° C. and 5% CO2 to allow cells to attach to wells. The following day, test compounds were serially diluted in neat DMSO to 1000× final concentrations prior to dilution with RPMI media to 10× and 1% DMSO. Ten L of the 10× compounds were then transferred to wells containing cells to produce a dose response of 10-fold dilutions from […]. Cells were incubated for 5 days at 37° C. and 5% CO2, then cell viability was measured using Cell Titer Glo reagent (Promega #G7571). Percent inhibition values were calculated and fitted to a sigmoidal dose response curves using Assay Explorer software to determine IC50s.

NAMPT, sequence (P43490 whole entry): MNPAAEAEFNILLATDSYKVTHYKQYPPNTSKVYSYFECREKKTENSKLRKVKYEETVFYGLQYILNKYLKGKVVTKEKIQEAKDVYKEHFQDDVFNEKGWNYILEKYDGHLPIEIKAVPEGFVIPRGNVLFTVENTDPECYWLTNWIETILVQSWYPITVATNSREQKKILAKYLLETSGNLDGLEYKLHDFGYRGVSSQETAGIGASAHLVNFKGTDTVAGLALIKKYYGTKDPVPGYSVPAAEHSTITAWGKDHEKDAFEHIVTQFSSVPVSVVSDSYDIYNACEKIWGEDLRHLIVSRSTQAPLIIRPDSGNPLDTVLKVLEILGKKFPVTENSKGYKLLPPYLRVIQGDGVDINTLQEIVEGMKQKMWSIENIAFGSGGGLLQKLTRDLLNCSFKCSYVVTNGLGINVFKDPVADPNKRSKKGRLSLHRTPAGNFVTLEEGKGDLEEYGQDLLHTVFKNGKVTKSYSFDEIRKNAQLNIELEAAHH

| SMILES | IC50 (NAMPT) [nM] | IC50 (PC3 cells) [nM] |
| --- | --- | --- |
| O=C(Nc1ccc(O[C@@H]2CCN(C(=O)c3ccccc3)C2)cc1)N1CC(c2cccnc2)C1 [Example 83, N-(4-{[(3R)-1-benzoylpyrrolidin-3-yl]oxy}phenyl)-3-(pyridin-3-yl)azetidine-1-carboxamide] | 7.22 | 6.85 |
| O=C(CC(F)(F)F)N1CC[C@@H](Oc2ccc(NC(=O)N3CC(c4cccnc4)C3)cc2)C1 [Example 84, 3-(pyridin-3-yl)-N-(4-{[(3R)-1-(3,3,3-trifluoropropanoyl)pyrrolidin-3-yl]oxy}phenyl)azetidine-1-carboxamide] | 59.4 | 22 |
| CCCC(=O)N1CC[C@@H](Oc2ccc(NC(=O)N3CC(c4cccnc4)C3)cc2)C1 [Example 87, N-(4-{[(3R)-1-butanoylpyrrolidin-3-yl]oxy}phenyl)-3-(pyridin-3-yl)azetidine-1-carboxamide] | 19.8 | 6.04 |
| CC(C)C(=O)N1CC[C@H](Oc2ccc(NC(=O)N3CC(c4cccnc4)C3)cc2)C1 [Example 89, N-(4-{[(3S)-1-(2-methylpropanoyl)pyrrolidin-3-yl]oxy}phenyl)-3-(pyridin-3-yl)azetidine-1-carboxamide] | 227 | 180 |
| O=C(Nc1ccc(O[C@H]2CCN(C(=O)[C@H]3CCCO3)C2)cc1)N1CC(c2cccnc2)C1 [Example 91, 3-(pyridin-3-yl)-N-[4-({(3S)-1-[(2R)-tetrahydrofuran-2-ylcarbonyl]pyrrolidin-3-yl}oxy)phenyl]azetidine-1-carboxamide] | 320 | 111 |
| O=C(Nc1ccc(O[C@H]2CCN(C(=O)C3CCOC3)C2)cc1)N1CC(c2cccnc2)C1 (stereo partly drawn) [Example 92, 3-(pyridin-3-yl)-N-(4-{[(3S)-1-(tetrahydrofuran-3-ylcarbonyl)pyrrolidin-3-yl]oxy}phenyl)azetidine-1-carboxamide] | 387 | 608 |
| O=C(CC1CC1)N1CC[C@H](Oc2ccc(NC(=O)N3CC(c4cccnc4)C3)cc2)C1 [Example 93, N-(4-{[(3S)-1-(cyclopropylacetyl)pyrrolidin-3-yl]oxy}phenyl)-3-(pyridin-3-yl)azetidine-1-carboxamide] | 138 | 87.6 |
| O=C(Nc1ccc(O[C@H]2CCN(C(=O)c3ccccc3)C2)cc1)N1CC(c2cccnc2)C1 [Example 95, N-(4-{[(3S)-1-benzoylpyrrolidin-3-yl]oxy}phenyl)-3-(pyridin-3-yl)azetidine-1-carboxamide] | 79.1 | 66.2 |
| O=C(CC(F)(F)F)N1CC[C@H](Oc2ccc(NC(=O)N3CC(c4cccnc4)C3)cc2)C1 [Example 96, 3-(pyridin-3-yl)-N-(4-{[(3S)-1-(3,3,3-trifluoropropanoyl)pyrrolidin-3-yl]oxy}phenyl)azetidine-1-carboxamide] | 265 | 171 |
| O=C(Nc1ccc(O[C@H]2CCN(C(=O)C3CC3)C2)cc1)N1CC(c2cccnc2)C1 [Example 97, N-(4-{[(3S)-1-(cyclopropylcarbonyl)pyrrolidin-3-yl]oxy}phenyl)-3-(pyridin-3-yl)azetidine-1-carboxamide] | 168 | 76.7 |
| O=C(Nc1ccc(OC2CN(C(=O)c3ccco3)C2)cc1)N1CC(c2cccnc2)C1 [Example 115, N-(4-{[1-(furan-2-ylcarbonyl)azetidin-3-yl]oxy}phenyl)-3-(pyridin-3-yl)azetidine-1-carboxamide] | 9.22 | 6.11 |
| CC(C)C(C)C(=O)N1CC(Oc2ccc(NC(=O)N3CC(c4cccnc4)C3)cc2)C1 (stereo not drawn) [Example 123, N-(4-{[1-(2,3-dimethylbutanoyl)azetidin-3-yl]oxy}phenyl)-3-(pyridin-3-yl)azetidine-1-carboxamide] | 14.7 | 8.81 |

The remaining lines, values ahead:

| IC50 (NAMPT) [nM] | IC50 (PC3 cells) [nM] | SMILES |
| --- | --- | --- |
| 16.7 | 5.13 | O=C(Nc1ccc(OC2CN(C(=O)c3cscn3)C2)cc1)N1CC(c2cccnc2)C1 [Example 147, 3-(pyridin-3-yl)-N-(4-{[1-(1,3-thiazol-4-ylcarbonyl)azetidin-3-yl]oxy}phenyl)azetidine-1-carboxamide] |
| 20.8 | 15.4 | O=C(Nc1ccc(OC2CN(C(=O)c3ccoc3)C2)cc1)N1CC(c2cccnc2)C1 [Example 151, N-(4-{[1-(furan-3-ylcarbonyl)azetidin-3-yl]oxy}phenyl)-3-(pyridin-3-yl)azetidine-1-carboxamide] |
| 24 | 7.89 | O=C(Nc1ccc(OC2CN(C(=O)c3nccs3)C2)cc1)N1CC(c2cccnc2)C1 [Example 154, 3-(pyridin-3-yl)-N-(4-{[1-(1,3-thiazol-2-ylcarbonyl)azetidin-3-yl]oxy}phenyl)azetidine-1-carboxamide] |
| 22.6 | 37.8 | CC(C)Cn1cc(-c2ccc(NC(=O)N3CC(c4cccnc4)C3)cc2)cn1 [Example 157, N-{4-[1-(2-methylpropyl)-1H-pyrazol-4-yl]phenyl}-3-(pyridin-3-yl)azetidine-1-carboxamide] |
| 26.3 | 36.5 | CCCn1cc(-c2ccc(NC(=O)N3CC(c4cccnc4)C3)cc2)cn1 [Example 158, N-[4-(1-propyl-1H-pyrazol-4-yl)phenyl]-3-(pyridin-3-yl)azetidine-1-carboxamide] |
| 317 | 617 | O=C(Nc1ccc(C2CN(CC3CCCC3)C2)cc1)N1CC(c2cccnc2)C1 [Example 245, N-{4-[1-(cyclopentylmethyl)azetidin-3-yl]phenyl}-3-(pyridin-3-yl)azetidine-1-carboxamide] |
| 193 | 541 | CCCC(C)CN1CC(c2ccc(NC(=O)N3CC(c4cccnc4)C3)cc2)C1 (stereo not drawn) [Example 249, N-{4-[1-(2-methylpentyl)azetidin-3-yl]phenyl}-3-(pyridin-3-yl)azetidine-1-carboxamide] |
| 191 | 691 | O=C(CN1CCCC1)N1CCC(c2ccc(NC(=O)N3CC(c4cccnc4)C3)cc2)C1 (stereo not drawn) [Example 265, 3-(pyridin-3-yl)-N-{4-[1-(pyrrolidin-1-ylacetyl)pyrrolidin-3-yl]phenyl}azetidine-1-carboxamide] |
| 96.2 | 207 | CN(C)CCC(=O)N1CCC(c2ccc(NC(=O)N3CC(c4cccnc4)C3)cc2)C1 (stereo not drawn) [Example 266, N-{4-[1-(N,N-dimethyl-beta-alanyl)pyrrolidin-3-yl]phenyl}-3-(pyridin-3-yl)azetidine-1-carboxamide] |
| 20.1 | 16.7 | CC1(C(=O)N2CCC(c3ccc(NC(=O)N4CC(c5cccnc5)C4)cc3)C2)CC1 (stereo not drawn) [Example 269, N-(4-{1-[(1-methylcyclopropyl)carbonyl]pyrrolidin-3-yl}phenyl)-3-(pyridin-3-yl)azetidine-1-carboxamide] |
| 203 | 7270 | O=C1CC[C@@H](C(=O)N2CCC(c3ccc(NC(=O)N4CC(c5cccnc5)C4)cc3)C2)N1 (stereo partly drawn) [Example 273, N-{4-[1-(5-oxo-L-prolyl)pyrrolidin-3-yl]phenyl}-3-(pyridin-3-yl)azetidine-1-carboxamide] |
| 76.7 | 63.1 | CC(=O)N1CCC(c2ccc(NC(=O)N3CC(c4cccnc4)C3)cc2)C1 (stereo not drawn) [Example 277, N-[4-(1-acetylpyrrolidin-3-yl)phenyl]-3-(pyridin-3-yl)azetidine-1-carboxamide] |
| 101 | 114 | COCCOCC(=O)N1CCC(c2ccc(NC(=O)N3CC(c4cccnc4)C3)cc2)C1 (stereo not drawn) [Example 280, N-(4-{1-[(2-methoxyethoxy)acetyl]pyrrolidin-3-yl}phenyl)-3-(pyridin-3-yl)azetidine-1-carboxamide] |
| 65.6 | 125 | O=C(CCN1CCOCC1)N1CCC(c2ccc(NC(=O)N3CC(c4cccnc4)C3)cc2)C1 (stereo not drawn) [Example 281, N-(4-{1-[3-(morpholin-4-yl)propanoyl]pyrrolidin-3-yl}phenyl)-3-(pyridin-3-yl)azetidine-1-carboxamide] |
| 17.2 | 26.5 | Cn1cccc1C(=O)N1CCC(c2ccc(NC(=O)N3CC(c4cccnc4)C3)cc2)C1 (stereo not drawn) [Example 285, N-(4-{1-[(1-methyl-1H-pyrrol-2-yl)carbonyl]pyrrolidin-3-yl}phenyl)-3-(pyridin-3-yl)azetidine-1-carboxamide] |
| 9.76 | 7.66 | O=C(Nc1ccc(C2CCN(C(=O)c3ccco3)C2)cc1)N1CC(c2cccnc2)C1 (stereo not drawn) [Example 286, N-{4-[1-(furan-2-ylcarbonyl)pyrrolidin-3-yl]phenyl}-3-(pyridin-3-yl)azetidine-1-carboxamide] |
| 35.2 | 11.2 | CCC(C)CC(=O)N1CC[C@@H](Oc2ccc(NC(=O)N3CC(c4cccnc4)C3)cc2)C1 (stereo partly drawn) [Example 298, N-(4-{[(3R)-1-(3-methylpentanoyl)pyrrolidin-3-yl]oxy}phenyl)-3-(pyridin-3-yl)azetidine-1-carboxamide] |
| 507 | 298 | CN(C)CCC(=O)N1CC[C@@H](Oc2ccc(NC(=O)N3CC(c4cccnc4)C3)cc2)C1 [Example 306, N-(4-{[(3R)-1-(N,N-dimethyl-beta-alanyl)pyrrolidin-3-yl]oxy}phenyl)-3-(pyridin-3-yl)azetidine-1-carboxamide] |
